Values quoted from earlier work in US9510493B2, “Mixture of hydrofluoroolefin and fluoroketone for use as an insulation and/or ARC extinguishing medium and a gas insulated medium-voltage electrical device comprising same” (priority 2011, dated 2016).

How the values were obtained:
animal population = conditions: causing death of 50% of an animal population
humans = conditions: average limit concentration, 8 hours per day for 5 days per week, without noxious effect

SMILES	lethal dose DL50 (animal population)	occupational exposure limit OEL (humans)
O=C(C(F)(F)F)C(F)(C(F)(F)F)C(F)(F)F [C5K, decafluoro-2-methylbutan-3-one]	more than 200 000 ppm	1 000 ppm
F/C=C/C(F)(F)F [HFO-1234ze, trans-1,3,3,3-tetrafluoro-1-propene]	> 200 000 ppm	1 000 ppm
